In patent US11793794B2, “Combination therapy for treating or preventing depression or other mood diseases” (YALE UNIVERSITY, priority 2018, dated 2023):

System: patients with major depression
Assay: double-blind placebo-controlled crossover study: rapamycin or placebo 2 hours before ketamine infusion, depression severity (MADRS)
Assay type: in vivo, human
Experimental: The present studies address a longstanding question in the field—whether the antidepressant effects of ketamine depend upon its capacity to stimulate a key protein known as the mechanistic target for rapamycin (mTOR). If that is indeed the case, ketamine's effects should be reduced when mTOR is inhibited. To test this hypothesis, a double-blind placebo-controlled crossover study was conducted under fully randomized conditions, whereby one set of patients was treated with the mTOR inhibitor rapamycin, an FDA approved drug that is currently used to treat certain immune disorders and cancers.
In this design, symptomatic antidepressant-treated patients with major depression who have a history of non-response to at least one prior antidepressant trial were recruited and studied over 3 years. Participants completed two ketamine infusion test days separated by at least two weeks. On each ketamine test day, patients were randomized to take a “loading dose” of rapamycin or placebo 2 hours before receiving an intravenous infusion of ketamine. The primary outcome measure of the study was the severity of depression, as measured by the Montgomery Åsberg Depression Rating Scale (MADRS). […]
Depression severity was assessed at baseline, and at 4 h, 24 h, 1 week, and 2 weeks post treatment. […]

In the case of CNC1(c2ccccc2Cl)CCCCC1=O (racemic) [ketamine, (RS)-2-(2-Chlorophenyl)-2-(methylamino)cyclohexanone], the time to relapse (placebo prior to 0.5 mg/kg iv ketamine, MADRS) is reported as at most 2 weeks and the “duration of benefits produced by ketamine” value (single ketamine infusion without rapamycin) is reported as “a few days”.
